Experimental data reported in patent US6979686B1, “Substituted pyrazoles as p38 kinase inhibitors” (Pharmacia Corporation, priority 2001, dated 2005).
Where a name gives a salt, the structure may show the parent alone.

These molecules were tested against T1, human p38 kinase alpha (Homo sapiens, UniProt Q16539) (assay: p38 kinase in vitro assay, phosphorylation of biotinylated PHAS-I with 32P-ATP). Conditions: @ 1.0 uM; read-out: P38 alpha kinase % inhib @ conc.
T1 construct: GST (N, cleaved yes); made in house; host or cells: E. coli DH10B
T1 sequence (Q16539 whole entry): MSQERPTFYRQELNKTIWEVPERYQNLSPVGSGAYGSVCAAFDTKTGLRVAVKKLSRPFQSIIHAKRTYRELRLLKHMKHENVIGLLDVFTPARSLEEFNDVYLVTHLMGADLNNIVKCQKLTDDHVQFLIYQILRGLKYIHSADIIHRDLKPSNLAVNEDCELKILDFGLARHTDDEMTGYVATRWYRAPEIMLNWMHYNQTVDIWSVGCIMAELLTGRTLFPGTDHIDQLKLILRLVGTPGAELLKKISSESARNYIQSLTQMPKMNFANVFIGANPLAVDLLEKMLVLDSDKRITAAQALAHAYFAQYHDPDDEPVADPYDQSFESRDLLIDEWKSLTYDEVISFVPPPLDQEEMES
Type: biochemical
Procedure: The coding region of the human p38a cDNA was obtained by PCR-amplification from RNA isolated from the human monocyte cell line THP.1. […] Random primer, dNTP's and Superscript™ reagents were all purchased from Life-Technologies, Gaithersburg, Mass. The reaction was incubated at 42° C. for 1 hour. Amplification of p38 cDNA was performed by aliquoting 5 μl of the reverse transcriptase reaction into a 100 μl PCR reaction containing the following: 80 μl dH2O, 2 μl 50 mM DNTP's, 1 μl each of forward and reverse primers (50 pmol/μl), 10 μl of 10×buffer and 1 μl Expand™ polymerase (Boehringer Mannheim). The PCR primers incorporated BamHI sites onto the 5′ and 3′ end of the amplified fragment, and were purchased from Genosys. […] The PCR amplification was carried out in a DNA Thermal Cycler (Perkin Elmer) by repeating 30 cycles of 94° C. for 1 minute, 60° C. for 1 minute and 68° C. for 2 minutes. After amplification, excess primers and unincorporated dNTP's were removed from the amplified fragment with a Wizard™ PCR prep (Promega) and digested with BamHI (New England Biolabs). The BamHI digested fragment was ligated into BamHI digested PGEX 2T plasmid DNA (PharmaciaBiotech) using T-4 DNA ligase (New England Biolabs) as described by T. Maniatis, Molecular Cloning: A Laboratory Manual, 2nd ed. […] The ligation reaction was transformed into chemically competent E. coli DH10B cells purchased from Life-Technologies following the manufacturer's instructions. Plasmid DNA was isolated from the resulting bacterial colonies using a Promega Wizard™ miniprep kit.
Expression of Human p38a:
Overnight cultures were grown in-Luria Broth (LB) containing […] ampicillin. The next day, 500 ml of fresh LB was inoculated with 10 ml of overnight culture, and grown in a 2 liter flask at 37° C. with constant shaking until the culture reached an absorbance of 0.8 at 600 nm. Expression of the fusion protein was induced by addition of isopropyl b-D-thiogalactosidse (IPTG) to a final concentration of 0.05 mM. The cultures were shaken for three hours at room temperature, and the cells were harvested by centrifugation. The cell pellets were stored frozen until protein purification.
Purification of p38 Kinase-α:
All chemicals were from Sigma Chemical Co. unless noted. Twenty grams of E. coli cell pellet collected from five 1 L shake flask fermentations was resuspended in a volume of PBS (140 mM NaCl, 2.7 mM KCl, 10 mM Na2HPO4, 1.8 mM KH2PO4, pH 7.3) up to 200 ml. The cell suspension was adjusted to 5 mM DTT with 2 M DTT and then split equally into five 50 ml Falcon conical tubes. The cells were sonnicated (Ultrasonics model W375) with a 1 cm probe for 3×1 minutes (pulsed) on ice. Lysed cell material was removed by centrifugation (12,000×g, 15 minutes) and the clarified supernatant applied to glutathione-sepharose resin (Pharmacia).
Glutathione-sepharose Affinity Chromatography:
The resin was collected by centrifugation (600×g, 5 min) and washed with 2×150 ml PBS/1% Triton X-100, followed by 4×40 ml PBS. To cleave the p38 kinase from the GST-p38 fusion protein, the glutathione-sepharose resin was resuspended in 6 ml PBS containing 250 units thrombin protease (Pharmacia, specific activity>7500 units/mg) and mixed gently for 4 hours at room temperature. The glutathione-sepharose resin was removed by centrifugation (600×g, 5 min) and washed 2×6 ml with PBS. The PBS wash fractions and digest supernatant containing p38 kinase protein were pooled and adjusted to 0.3 mM PMSF.
Mono O Anion Exchange Chromatography:
The thrombin-cleaved p38 kinase was further purified by FPLC-anion exchange chromatography.
An inhibition at 1 µM of 70% was found for COCC(=O)NCc1[nH]nc(-c2ccc(F)cc2)c1-c1ccncc1 [Example B-0003] in this work. An inhibition at 1 µM of 80% was found for CC(=O)OCC(=O)NCc1[nH]nc(-c2ccc(F)cc2)c1-c1ccncc1 [Example B-0004] in this work. An inhibition at 1 µM of 82% was found for O=C(COCc1ccccc1)NCc1[nH]nc(-c2ccc(F)cc2)c1-c1ccncc1 [Example B-0006] in this work. An inhibition at 1 µM of 74% was found for O=C(NCc1[nH]nc(-c2ccc(F)cc2)c1-c1ccncc1)c1ccc(Br)cc1 [Example B-0007] in this work. An inhibition at 1 µM of 42% was found for O=C(NCc1[nH]nc(-c2ccc(F)cc2)c1-c1ccncc1)c1ccc(-c2ccccc2)cc1 [Example B-0008] in this work. An inhibition at 1 µM of 30% was found for CCCCCc1ccc(C(=O)NCc2[nH]nc(-c3ccc(F)cc3)c2-c2ccncc2)cc1 [Example B-0012] in this work.

Same assay, conditions: Table 8; 1% DMSO; read-out: p38α Kinase Assay IC50
An IC50 of 1340 nM was found for O=C(O)c1n[nH]c(-c2ccc(F)cc2)c1-c1ccncc1 [A-313, Step 1, 5-(4-fluorophenyl)-4-(4pyridinyl)-1H-pyrazole-3-carboxylic acid, monohydrate] in this work. An IC50 of 36 nM was found for CN1CCN(Cc2n[nH]c(-c3ccc(F)cc3)c2-c2ccncc2)CC1 [A-313, Step 3, 1-[[5-(4-fluorophenyl)-4-(4-pyridinyl)-1H-pyrazol-3-yl]methyl]-4-methylpiperazine] in this work. An IC50 of 850 nM was found for O=C(c1n[nH]c(-c2ccc(F)cc2)c1-c1ccncc1)N1CCNCC1 [A-314, Step 1, 1-[[5-(4-fluorophenyl)-4-(4-pyridinyl)-1H-pyrazol-3-yl]carbonyl]piperazine, monhydrate] in this work. An IC50 of 770 nM was found for O=C(O)CCC(=O)N1CCN(c2n[nH]c(-c3ccc(Cl)cc3)c2-c2ccncc2)CC1 [A-321 (dihydrate), 4-[5-(4-chlorophenyl)-4-(4-pyridinyl)-1H-pyrazol-3-yl]-γ-oxo-1-piperazinebutanoic acid, dihydrate] in this work. An IC50 of 290 nM was found for C#CCn1nc(N2CCNCC2)c(-c2ccncc2)c1-c1ccc(Cl)cc1 [Example A-318, 1-[5-(4-chlorophenyl)-4-(4-pyridinyl)-1-(2-propynyl)-1H-pyrazol-3-yl]piperazine, trihydrochloride monohydrate] in this work. An IC50 of 6060 nM was found for COC(=O)N1CCN(c2[nH]nc(-c3ccc(Cl)cc3)c2-c2ccncc2)CC1 [Example A-319, methyl 4-[5-(4-chlorophenyl)-4-(4-pyridinyl)-1H-pyrazol-3-yl]-1-piperazinecarboxylate, monohydrate] in this work. An IC50 of 270 nM was found for CS(=O)(=O)N1CCN(c2n[nH]c(-c3ccc(Cl)cc3)c2-c2ccncc2)CC1 [Example A-320, 1-[5-(4-chlorophenyl)-4-(4-pyridinyl)-1H-pyrazol-3-yl]-4-(methylsulfonyl)piperazine, monohydrate] in this work. An IC50 of 21 nM was found for Fc1ccc(-c2[nH]ncc2-c2ccnc(Nc3ccccc3F)n2)cc1 [Example A-325, N-(2-fluorophenyl)-4-[3-(4-fluorophenyl)-1H-pyrazol-4-yl]-2-pyrimidinamine] in this work. An IC50 of 12 nM was found for Clc1ccc(-c2[nH]nc(N3CCNCC3)c2-c2ccncc2)cc1 [Example A-328, 1-[5-(4-chlorophenyl)-4-(4-pyridinyl)-1H-pyrazol-3-yl]piperazine] in this work. An IC50 of 40 nM was found for Clc1ccc(-c2[nH]nc(NC3CCNCC3)c2-c2ccncc2)cc1 [Example A-332, N-[5-(4-chlorophenyl)-4-(4-pyridinyl)-3H-pyrazol-3-yl]-4-piperidineamine, trihydrochloride, monohydrate] in this work.

Same assay, conditions: activated human p38 kinase alpha, PHAS-I substrate, 50 μM unlabeled ATP; read-out: p38 kinase IC50
An IC50 of 300 nM was found for Cc1cccc(-c2n[nH]c(-c3cccc(C)c3)c2-c2ccncc2)c1 [Example A-28] in this work. An IC50 of 2500 nM was found for Cc1[nH]nc(-c2cccc(F)c2C)c1-c1ccncc1 [Example A-33] in this work. An IC50 of 8000 nM was found for Cc1cc(C)cc(-c2n[nH]c(C)c2-c2ccncc2)c1 [Example A-34] in this work. An IC50 of 1300 nM was found for Cc1n[nH]c(-c2ccccc2F)c1-c1ccncc1 [Example A-40] in this work. An IC50 of 300 nM was found for Cc1[nH]nc(-c2cccc(C(F)(F)F)c2)c1-c1ccncc1 [Example A-42] in this work. An IC50 of 2300 nM was found for Cc1[nH]nc(-c2ccc(Cl)cc2Cl)c1-c1ccncc1 [Example A-50] in this work. An IC50 of 900 nM was found for CCOC(=O)CCc1[nH]nc(-c2ccc(Cl)cc2)c1-c1ccncc1 [Example A-53] in this work.
